# Measurements: ChEMBL document CHEMBL1201862, “PubChem BioAssay data set” (2004)
#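 Growth conditions: 96-well plates. Treatment: test compound, 48 hours, 5 concentrations. Analysis: linear interpolation between bracketing concentrations; unreached endpoints set to highest concentration. Abbreviation: GI50, concentration required for 50% inhibition of growth.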 Calls of active or inactive are those of the source. Rule as the data show it: active = GI50 up to about 1.1 µM and inactive = higher.
# Experiments:
# Assay in all cases: growth of human tumour cells (NCI), 48 h
# CAKI-1 = tested on: CAKI-1
# CCRF-CEM = tested on: CCRF-CEM
# COLO 205 = tested on: COLO 205
# Hs-578T = tested on: Hs-578T
# IGROV-1 = tested on: IGROV-1
# KM12 = tested on: KM12
# M14 = tested on: M14
# NCI-H460 = tested on: NCI-H460
# SF-539 = tested on: SF-539
# SK-MEL-2 = tested on: SK-MEL-2
# SK-MEL-5 = tested on: SK-MEL-5
# SNB-19 = tested on: SNB-19
# SW-620 = tested on: SW-620
# TK-10 = tested on: TK-10
# U-251 = tested on: U-251
# UACC-62 = tested on: UACC-62
# K562 = tested on: K562
# LOX IMVI = tested on: LOX IMVI
# OVCAR-4 = tested on: OVCAR-4
SMILES,GI50 (CAKI-1),GI50 (CCRF-CEM),GI50 (COLO 205),GI50 (Hs-578T),GI50 (IGROV-1),GI50 (KM12),GI50 (M14),GI50 (NCI-H460),GI50 (SF-539),GI50 (SK-MEL-2),GI50 (SK-MEL-5),GI50 (SNB-19),GI50 (SW-620),GI50 (TK-10),GI50 (U-251),GI50 (UACC-62),GI50 (K562),GI50 (LOX IMVI),GI50 (OVCAR-4)
CC(C(=O)NCNC(=O)c1ccccc1)C(=O)NCc1ccccc1 (centres undefined),> 100 µM (inactive),> 100 µM (inactive),> 100 µM (inactive),> 100 µM (inactive),> 100 µM (inactive),> 100 µM (inactive),> 100 µM (inactive),> 100 µM (inactive),> 100 µM (inactive),> 100 µM (inactive),> 100 µM (inactive),> 100 µM (inactive),> 100 µM (inactive),> 100 µM (inactive),> 100 µM (inactive),> 100 µM (inactive),,,
COC(=O)CCN(CCC(=O)OC)C1CC1,,> 100 µM (inactive),> 100 µM (inactive),> 100 µM (inactive),> 100 µM (inactive),> 100 µM (inactive),> 100 µM (inactive),> 100 µM (inactive),> 100 µM (inactive),,> 100 µM (inactive),> 100 µM (inactive),> 100 µM (inactive),> 100 µM (inactive),> 100 µM (inactive),> 100 µM (inactive),> 100 µM (inactive),> 100 µM (inactive),> 100 µM (inactive)
c1ccc2c(c1)[n-]n1c3ccc4nonc4c3n[n+]21,> 100 µM (inactive),> 100 µM (inactive),> 100 µM (inactive),,> 100 µM (inactive),> 100 µM (inactive),> 100 µM (inactive),93.3 µM (inactive),> 100 µM (inactive),> 100 µM (inactive),> 100 µM (inactive),> 100 µM (inactive),> 100 µM (inactive),,> 100 µM (inactive),> 100 µM (inactive),> 100 µM (inactive),> 100 µM (inactive),> 100 µM (inactive)
CCCCCCCCCC(=O)N[C@@H](c1ccco1)[C@@H](O)C(=O)O[C@H]1C[C@@]2(O)[C@@H](OC(=O)c3ccccc3)[C@@H]3[C@]4(OC(C)=O)CO[C@@H]4C[C@H](O)[C@@]3(C)C(=O)[C@H](OC(C)=O)C(=C1C)C2(C)C,2.85 µM (inactive),0.0178 µM (active),< 0.005 µM (active),0.00865 µM (active),0.0324 µM (active),0.00879 µM (active),0.0308 µM (active),0.0118 µM (active),0.0228 µM (active),,0.0154 µM (active),0.0442 µM (active),0.0243 µM (active),0.468 µM (active),< 0.0241 µM (active),0.0467 µM (active),0.0187 µM (active),0.0111 µM (active),1.34 µM (inactive)
O=C(NNC(c1ccccc1)C(F)(F)F)c1ccncc1 (centres undefined),> 100 µM (inactive),> 100 µM (inactive),> 100 µM (inactive),,> 100 µM (inactive),> 100 µM (inactive),> 100 µM (inactive),> 100 µM (inactive),> 100 µM (inactive),> 100 µM (inactive),> 100 µM (inactive),> 100 µM (inactive),> 100 µM (inactive),> 100 µM (inactive),> 100 µM (inactive),,> 100 µM (inactive),> 100 µM (inactive),> 100 µM (inactive)
Cc1ccccc1Nc1cn(COCc2ccccc2)c(=O)[nH]c1=O,> 100 µM (inactive),91.6 µM (inactive),50.9 µM (inactive),54.3 µM (inactive),33 µM (inactive),57.5 µM (inactive),> 100 µM (inactive),69.5 µM (inactive),,,55 µM (inactive),> 100 µM (inactive),> 100 µM (inactive),,> 100 µM (inactive),75.2 µM (inactive),> 100 µM (inactive),59.8 µM (inactive),39.5 µM (inactive)
O=C(CC(C(=O)c1cccs1)c1ccsc1)c1ccco1 (centres undefined),29.1 µM (inactive),19.1 µM (inactive),8.07 µM (inactive),19.1 µM (inactive),47.6 µM (inactive),22.7 µM (inactive),19.4 µM (inactive),24.2 µM (inactive),27.5 µM (inactive),,27.7 µM (inactive),,30.1 µM (inactive),32.4 µM (inactive),21.4 µM (inactive),22.8 µM (inactive),,37.3 µM (inactive),
Cn1c2c3ccccc3nc-2c(O)c2ccccc21 [HYDROXYCRYPTOLEPINE],8.91 µM (inactive),90.6 µM (inactive),83.2 µM (inactive),,35.4 µM (inactive),> 100 µM (inactive),> 100 µM (inactive),59.2 µM (inactive),50.5 µM (inactive),> 100 µM (inactive),41.2 µM (inactive),> 100 µM (inactive),> 100 µM (inactive),> 100 µM (inactive),> 100 µM (inactive),> 100 µM (inactive),> 100 µM (inactive),> 100 µM (inactive),54.1 µM (inactive)
